Data set [1] can be described thus: Size and polydispersity index of nanoparticles comprising compounds of the disclosure. The format is physicochemical. Conditions: compound:DSPC:cholesterol:PEG 2 50:10:38:2 mol %. The text has this: Lipid nanoparticles (e.g., empty LNPs or loaded LNPs) may be characterized by a variety of methods. For example, microscopy (e.g., transmission electron microscopy or scanning electron microscopy) may be used to examine the morphology and size distribution of a nanoparticle composition. Dynamic light scattering or potentiometry (e.g., potentiometric titrations) may be used to measure zeta potentials. Dynamic light scattering may also be utilized to determine particle sizes. Instruments such as the Zetasizer Nano ZS (Malvern Instruments Ltd, Malvern, Worcestershire, UK) may also be used to measure multiple characteristics of a nanoparticle composition, such as particle size, polydispersity index, and zeta potential.
(§1) Nanoparticle compositions including a therapeutic and/or prophylactic can be optimized according to the selection of a compound according to Formula (I), (I-1), (A), (A-1), (A-1a), or (A-1b), the selection of additional lipids, the amount of each lipid in the lipid component, and the wt:wt ratio of the lipid component to the therapeutic and/or prophylactic. Nanoparticle compositions including DSPC as a phospholipid, cholesterol as a structural lipid, PEG 2 as a PEG lipid, and a compound according to Formula (I), (I-1), (A), (A-1), (A-1a), or (A-1b) were prepared. The ratios of the lipids were 50:10:38:2 mol % for the lipid according to Formula (I), (I-1), (A), (A-1), (A-1a), or (A-1b):DSPC:cholesterol:PEG 2. […]

Data set [2] is described as follows: Encapsulation efficiency (% EE), ribogreen. Format: physicochemical. The note with it: nanoparticles, compound:DSPC:cholesterol:PEG 2 50:10:38:2 mol %.
Text: The efficiency of encapsulation of a therapeutic and/or prophylactic describes the amount of therapeutic and/or prophylactic that is encapsulated or otherwise associated with a lipid nanoparticle (e.g., an empty LNP or a loaded LNP) after preparation, relative to the initial amount provided. The encapsulation efficiency is desirably high (e.g., close to 100%). The encapsulation efficiency may be measured, for example, by comparing the amount of therapeutic and/or prophylactic in a solution containing the lipid nanoparticle (e.g., an empty LNP or a loaded LNP) before and after breaking up the lipid nanoparticle (e.g., an empty LNP or a loaded LNP) with one or more organic solvents or detergents. Fluorescence may be used to measure the amount of free therapeutic and/or prophylactic (e.g., RNA) in a solution.
as §1

A short description of data set [3]: Apparent LNP pKa by 2-(p-toluidino)-6-napthalene sulfonic acid (TNS) assay. Format: physicochemical. Conditions: pH at half of maximum fluorescence.
The nature of data set [4]: Heparin-sepharose binding of nanoparticles.
Data set [5] has as its system hEPO mRNA. As to the kind of experiment: hEPO expression in CD1-mice after intravenous administration of nanoparticles. Conditions: 6 h after intravenous administration, mRNA dose 0.5 mg/kg, N:P 3.4, compound:DSPC:cholesterol:PEG 2 50:10:38:2. Format: in vivo. On the procedure: The expression of hEPO mRNA in CD1-mice was measured 6 h after intravenous administration of nanoparticles comprising a compound of the disclosure, DSPC, cholesterol, and PEG 2 in a ratio of 50:10:38:2. […] Each composition was dosed to 8 animals at an mRNA dose of 0.5 mg/kg.

Data set [6] in a line: Surface hydrophobicity by Generalized Polarization by Laurdan (GPL). Format: physicochemical. The note with it: normalized Generalized Polarization by Laurdan; higher N-GP = less polar surface. The text has this: Nanoparticle compositions including a therapeutic and/or prophylactic can be optimized according to the selection of a compound according to Formula (I), (I-1), (A), (A-1), (A-1a), or (A-1b), the selection of additional lipids, the amount of each lipid in the lipid component, and the wt:wt ratio of the lipid component to the therapeutic and/or prophylactic. Nanoparticle compositions including DSPC as a phospholipid, cholesterol as a structural lipid, PEG 2 as a PEG lipid, and a compound according to Formula (I), (I-1), (A), (A-1), (A-1a), or (A-1b) were prepared. The ratios of the lipids were 50:10:38:2 mol % for the lipid according to Formula (I), (I-1), (A), (A-1), (A-1a), or (A-1b):DSPC:cholesterol:PEG 2.
Laurdan, a fluorescent aminonaphthalene ketone lipid, was post-inserted into the nanoparticle surface and the fluorescence spectrum of Laurdan was collected to determine the normalized Generalized Polarization (N-GP). Higher N-GP indicates a less polar surface.

Counter-ions that a name gives are not always drawn.

As to `CCCCCCCCC(CC)OC(=O)CCCCCCCN(CCCCCCCC(=O)OC(CCCCCCCC)CCCCCCCC)CCCNC1=NS(=O)(=O)N=C1NC` (stereo not shown) [Compound 2, Heptadecan-9-yl 8-((3-((4-(methylamino)-1,1-dioxido-1,2,5-thiadiazol-3-yl)amino)propyl)(8-oxo-8-(undecan-3-yloxy)octyl)amino)octanoate], in data set [1], the PDI stood at 0.104 and the “Size (nm)” value came to 60.8 nm. The “% EE (ribogreen)” value in data set [2] is recorded as 95.1%. The “LogIC50 (pKa)” value in data set [3] came out at 7.65. Besides, the “Relative % Area Bound by LNP” value in data set [4] stood at 21.86%. Besides, in data set [5], the “Avg. [hEPO] mIU/mL” value is reported as 6.57E+04 mIU/mL.
As for `CCCCCCCCC(CC)OC(=O)CCCCCCCN(CCCCCCCC(=O)OC(CCCCCCCC)CCCCCCCC)CCCNc1c(Cl)c(=O)n(C)n(C)c1=O` (stereo not shown) [Compound 6, Heptadecan-9-yl 8-((3-((5-chloro-1,2-dimethyl-3,6-dioxo-1,2,3,6-tetrahydropyridazin-4-yl)amino)propyl)(8-oxo-8-(undecan-3-yloxy)octyl)amino)octanoate], in data set [1], the PDI came out at 0.088 and the “Size (nm)” value was found to be 68.4 nm. Also, the “% EE (ribogreen)” value in data set [2] is 97.9%. Further, in data set [3], the “LogIC50 (pKa)” value is reported as 6.00. Also, the “Relative % Area Bound by LNP” value in data set [4] amounted to 0%. The “Avg. [hEPO] mIU/mL” value in data set [5] came to 8.12E+04 mIU/mL.
For the molecule `CCCCCCCCC(CC)OC(=O)CCCCCCCN(CCCCCCCC(=O)OC(CCCCCCCC)CCCCCCCC)CCCNC(=O)C(=O)NC` (stereo not shown) [Compound 12, Heptadecan-9-yl 8-((3-(2-(methylamino)-2-oxoacetamido)propyl)(8-oxo-8-(undecan-3-yloxy)octyl)amino)octanoate], in data set [1], the PDI amounted to 0.139 and the “Size (nm)” value amounted to 78.9 nm. Further, the “% EE (ribogreen)” value in data set [2] turned out to be 85.0%. Besides, the “LogIC50 (pKa)” value in data set [3] is given as 6.13. Besides, the “Relative % Area Bound by LNP” value in data set [4] is 1.43%. In data set [5], the “Avg. [hEPO] mIU/mL” value turned out to be 2.29E+05 mIU/mL.
In the case of `CCCCCCCCC(CC)OC(=O)CCCCCCCN(CCCCCCCC(=O)OC(CCCCCCCC)CCCCCCCC)CCCNC(C(N)=O)C(N)=O` (stereo not shown) [Compound 14, Heptadecan-9-yl 8-((3-((1,3-diamino-1,3-dioxopropan-2-yl)amino)propyl)(8-oxo-8-(undecan-3-yloxy)octyl)amino)octanoate], in data set [1], the PDI worked out at 0.167 and the “Size (nm)” value stood at 91.2 nm. Moreover, the “% EE (ribogreen)” value in data set [2] is 98.9%. In addition, the “LogIC50 (pKa)” value in data set [3] was 7.20. Moreover, in data set [4], the “Relative % Area Bound by LNP” value is 69.04%. In data set [5], the “Avg. [hEPO] mIU/mL” value turned out to be 6.20E+04 mIU/mL.
For the molecule `CCCCCCCCC(CC)OC(=O)CCCCCCCN(CCCCCCCC(=O)OC(CCCCCCCC)CCCCCCCC)CCCNC(=O)CC(=O)NC` (stereo not shown) [Compound 17, Heptadecan-9-yl 8-({3-[2-(methylcarbamoyl)acetamido]propyl}[8-oxo-8-(undecan-3-yloxy)octyl]amino)octanoate], in data set [1], the PDI worked out at 0.178 and the “Size (nm)” value was determined as 80.8 nm. Further, the “% EE (ribogreen)” value in data set [2] turned out to be 98.4%. For the same molecule, in data set [3], the “LogIC50 (pKa)” value turned out to be 7.23. In addition, the “Relative % Area Bound by LNP” value in data set [4] came out at 37.96%. The “Avg. [hEPO] mIU/mL” value in data set [5] worked out at 7.95E+04 mIU/mL.
Turning to `CCCCCCCCC(CC)OC(=O)CCCCCCCN(CCCCCCCC(=O)OC(CCCCCCCC)CCCCCCCC)CCCNc1cc[nH]c(=O)n1` (stereo not shown) [Compound 21, Heptadecan-9-yl 8-((3-((2-oxo-1,2-dihydropyrimidin-4-yl)amino)propyl)(8-oxo-8-(undecan-3-yloxy)octyl)amino)octanoate], in data set [1], the PDI was 0.141 and the “Size (nm)” value was determined as 62.5 nm. For the same molecule, in data set [2], the “% EE (ribogreen)” value was 99.4%. In data set [3], the “LogIC50 (pKa)” value is 7.59. The “Relative % Area Bound by LNP” value in data set [4] is 50.19%. In data set [5], the “Avg. [hEPO] mIU/mL” value was 7.04E+04 mIU/mL.
Take `CCCCCCCCC(CC)OC(=O)CCCCCCCN(CCCCCCCC(=O)OC(CCCCCCCC)CCCCCCCC)CCCNc1cc(=O)[nH]c(=O)[nH]1` (stereo not shown) [Compound 24, Heptadecan-9-yl 8-((3-((2,6-dioxo-1,2,3,6-tetrahydropyrimidin-4-yl)amino)propyl)(8-oxo-8-(undecan-3-yloxy)octyl)amino)octanoate]: in data set [1], the PDI was 0.114 and the “Size (nm)” value stood at 60.8 nm. Besides, the “% EE (ribogreen)” value in data set [2] was 98.8%. In data set [3], the “LogIC50 (pKa)” value is 6.56. For the same molecule, the “Relative % Area Bound by LNP” value in data set [4] is 0%. In data set [5], the “Avg. [hEPO] mIU/mL” value is given as 2.05E+05 mIU/mL.
As for `CCCCCCCCC(CC)OC(=O)CCCCCCCN(CCCCCCCC(=O)OC(CCCCCCCC)CCCCCCCC)CCCNc1nc2[nH]cnc2c(=O)[nH]1` (stereo not shown) [Compound 29, Heptadecan-9-yl 8-((3-((6-oxo-6,9-dihydro-1H-purin-2-yl)amino)propyl)(8-oxo-8-(undecan-3-yloxy)octyl)amino)octanoate], in data set [1], the PDI was 0.199 and the “Size (nm)” value was 63.5 nm. Moreover, the “% EE (ribogreen)” value in data set [2] worked out at 98.9%. The “LogIC50 (pKa)” value in data set [3] worked out at 6.68. Moreover, the “Relative % Area Bound by LNP” value in data set [4] is listed as 6.45%. The “Avg. [hEPO] mIU/mL” value in data set [5] is recorded as 8.93E+04 mIU/mL.
`CCCCCCCCC(CC)OC(=O)CCCCCCCN(CCCCCCCC(=O)OC(CCCCCCCC)CCCCCCCC)CCCn1ccc2cc([N+](=O)[O-])ccc21` (stereo not shown) [Compound 48, Heptadecan-9-yl 8-((3-(5-nitro-1H-indol-1-yl)propyl)(8-oxo-8-(undecan-3-yloxy)octyl)amino)octanoate]: in data set [1], the PDI is listed as 0.196 and the “Size (nm)” value stood at 54.3 nm. Also, the “% EE (ribogreen)” value in data set [2] was −11.2%. Also, the “LogIC50 (pKa)” value in data set [3] was found to be 6.41. Besides, the “Relative % Area Bound by LNP” value in data set [4] stood at 0%. Moreover, the “Avg. [hEPO] mIU/mL” value in data set [5] is reported as 0 mIU/mL.
As to `CCCCCCCCC(CC)OC(=O)CCCCCCCN(CCCCCCCC(=O)OC(CCCCCCCC)CCCCCCCC)CCCNc1noc(N)n1` (stereo not shown) [Compound 50, Heptadecan-9-yl 8-((3-((5-amino-1,2,4-oxadiazol-3-yl)amino)propyl)(8-oxo-8-(undecan-3-yloxy)octyl)amino)octanoate], in data set [1], the PDI was 0.18 and the “Size (nm)” value came out at 69.8 nm. Besides, the “% EE (ribogreen)” value in data set [2] is 98.1%. Also, in data set [3], the “LogIC50 (pKa)” value was 6.09. Further, the “Relative % Area Bound by LNP” value in data set [4] is on record as 0%. Further, the “Avg. [hEPO] mIU/mL” value in data set [5] is listed as 1.91E+05 mIU/mL.
For the molecule `CCCCCCCCC(CC)OC(=O)CCCCCCCN(CCCCCCCC(=O)OC(CCCCCCCC)CCCCCCCC)CCCN/C=C1/NC(=O)NC1=O` (stereo not shown) [Compound 52], in data set [1], the PDI was 0.22 and the “Size (nm)” value was found to be 53.7 nm. Besides, the “% EE (ribogreen)” value in data set [2] was 98.2%.
For `CCCCCCCCC(CC)OC(=O)CCCCCCCN(CCCCCCCC(=O)OC(CCCCCCCC)CCCCCCCC)CCCNc1nnc(N)s1` (stereo not shown) [Compound 82, Heptadecan-9-yl 8-((3-((5-amino-1,3,4-thiadiazol-2-yl)amino)propyl)(8-oxo-8-(undecan-3-yloxy)octyl)amino)octanoate Trifluoroacetate Salt], in data set [3], the “LogIC50 (pKa)” value was found to be 6.25. For the same molecule, the “Average N-GP” value in data set [6] is listed as 0.920. The “Relative % Area Bound by LNP” value in data set [4] is listed as 1.67%. Further, the “Avg. [hEPO] mIU/mL” value in data set [5] was found to be 2.18E+05 mIU/mL.
